Tests used:
S. aureus (MTCC 737) = assay: Minimum Inhibitory Concentration, micro-dilution broth; assay type: cell-based, Staphylococcus aureus; conditions: 24 h, 37° C.
[1] = tested on: Enterococcus faecium (ATCC 19634); assay: as above; assay type: cell-based; conditions: 24 h, 37° C.; read-out: Minimum Inhibitory Concentration E. faceium
E. coli (MTCC 443) = assay: as above; assay type: cell-based; conditions: 24 h, 37° C.
MRSA (ATCC 33591) = assay: as above; assay type: cell-based, methicillin-resistant S. aureus; conditions: 24 h, 37° C.
[2] = tested on: vancomycin resistant Enterococcus faecium (VRE) (ATCC 51559); assay: as above; assay type: cell-based; conditions: 24 h, 37° C.
[3] = tested on: Klebsiella pneumoniae (ATCC 700603); assay: as above; assay type: cell-based; conditions: 24 h, 37° C.
human Red Blood Cells = assay: Haemolytic activity; conditions: human RBCs, 1 h at 37° C.
S. aureus biofilms = assay: Bacterial biofilm disruption (pre-formed biofilm); assay type: cell-based; conditions: 64×MIC, 24 h

Row | Structure (SMILES) | MIC (S. aureus (MTCC 737)) | MIC [1] | MIC (E. coli (MTCC 443)) | Minimum Inhibitory Concentration MRSA (MRSA (ATCC 33591)) | MIC [2] | Minimum Inhibitory Concentration K. pneumonie [3] | HC50 (human Red Blood Cells; Table 6) | reduction of cell viability in pre-existing biofilms (S. aureus biofilms) | HC50 (human Red Blood Cells; Table 3)
1 | CCCCCCCCCCCC(=O)N(CCCNC(=O)[C@@H](N)C(C)C)CCCNC(=O)[C@@H](N)C(C)C.O=C(O)C(F)(F)F.O=C(O)C(F)(F)F [Compound 48, N,N-bis-[{3-(Val)amido}propyl]dodecanamide bis(trifluoroacetate)] | 28 µM | 25 µM | 18 µM | 40 µM | 25 µM | 58 µM | 264 µM |  | 
2 | CCCCCCCCCCCCCC(=O)N(CCCNC(=O)CN)CCCNC(=O)CN.O=C(O)C(F)(F)F.O=C(O)C(F)(F)F [Compound 43, N,N-bis-[{3-(Gly)amido}propyl]tetradecanamide bis(trifluoroacetate)] | 12.5 µM | 8.8 µM | 16 µM | 10.8 µM | 13 µM | >365 µM | 157 µM |  | 
3 | CC[C@H]1OC(=O)[C@H](C)[C@@H](O[C@H]2C[C@@](C)(OC)[C@@H](O)[C@H](C)O2)[C@H](C)[C@@H](O[C@@H]2O[C@H](C)C[C@H](N(C)C)[C@H]2O)[C@](C)(O)C[C@@H](C)C(=O)[C@H](C)[C@@H](O)[C@]1(C)O [erythromycin, reference compound] |  |  |  |  |  |  |  | none of the antibiotics showed significant reduction | 
4 | CCCCCCCCCCCCCC(=O)N(CCCNC(=O)[C@@H](N)CCCCN)CCCNC(=O)[C@@H](N)CCCCN.O=C(O)C(F)(F)F.O=C(O)C(F)(F)F [Compound 11, N,N-bis-[{3-(^LLys)amino}propyl]tetradecanamide bis(trifluoroacetate)] | 7.8 µM | 2 µM | 5.9 µM | 14 µM | 1.5 µM | 9.3 µM |  |  | 588
5 | CCCCCCCCCCCCCCCC(=O)N(CCCNC(=O)[C@H](C)N)CCCNC(=O)[C@H](C)N.O=C(O)C(F)(F)F.O=C(O)C(F)(F)F [Compound 47, N,N-bis-[{3-(^LAla)amido}propyl]hexadecanamide bis(trifluoroacetate)] | 5.6 µM | 3 µM | 4 µM | 6 µM | 3 µM | 12 µM | 68 µM |  | 
6 | CCCCCCCCCCCCCCCC(=O)N(CCCNC(=O)CN)CCCNC(=O)CN.O=C(O)C(F)(F)F.O=C(O)C(F)(F)F [Compound 44, N,N-bis-[{3-(Gly)amido}propyl]hexadecanamide bis(trifluoroacetate)] | 6.5 µM | 4 µM | 5.9 µM | 10 µM | 3.3 µM | >365 µM | 90 µM |  | 
7 | CCCCCCCCCCCCCC(=O)N(CCCNC(=O)[C@@H]1CCCN1)CCCNC(=O)[C@@H]1CCCN1.O=C(O)C(F)(F)F.O=C(O)C(F)(F)F [Compound 58, N,N-bis-[{3-(^LPro)amido}propyl]tetradecanamide bis(trifluoroacetate)] | 11 µM | 13 µM | 12 µM | 15 µM | 18 µM | 135 µM | 216 µM |  | 
8 | CCCCCCCCCCCC(=O)N(CCCNC(=O)[C@@H]1CCCN1)CCCNC(=O)[C@@H]1CCCN1.O=C(O)C(F)(F)F.O=C(O)C(F)(F)F [Compound 57, N,N-bis-[{3-(^LPro)amido}propyl]dodecanamide bis(trifluoroacetate)] | 60 µM | 78 µM | 90 µM | 130 µM | 112 µM | >340 µM | 918 µM |  | 
9 | CCCCCCCCCCCC(=O)N(CCCNC(=O)[C@@H](N)[C@@H](C)CC)CCCNC(=O)[C@@H](N)[C@@H](C)CC.O=C(O)C(F)(F)F.O=C(O)C(F)(F)F [Compound 51, N,N-bis-[{3-(^LIle)amido}propyl]dodecanamide bis(trifluoroacetate)] | 8 µM | 8 µM | 11 µM | 5.7 µM | 11.3 µM | 28 µM | 95 µM |  | 
10 | CCCCCCCCCCCCCC(=O)N(CCCNC(=O)[C@@H](N)Cc1ccccc1)CCCNC(=O)[C@@H](N)Cc1ccccc1.O=C(O)C(F)(F)F.O=C(O)C(F)(F)F [Compound 3, N,N-bis-[{3-(^LPhe)amino}propyl]tetradecanamide bis(trifluoroacetate)] | 7 µM | 5.2 µM | 16 µM | 4.8 µM | 2.8 µM | 18 µM |  |  | 144
11 | CCCCCCCCCCCCCC(=O)N(CCCNC(=O)[C@H](C)N)CCCNC(=O)[C@H](C)N.O=C(O)C(F)(F)F.O=C(O)C(F)(F)F [Compound 46, N,N-bis-[{3-(^LAla)amido}propyl]tetradecanamide bis(trifluoroacetate)] | 19 µM | 9 µM | 17 µM | 17 µM | 7.6 µM | >360 µM | 93 µM |  | 
12 | CN[C@H](CC(C)C)C(=O)N[C@H]1C(=O)N[C@@H](CC(N)=O)C(=O)N[C@H]2C(=O)N[C@H]3C(=O)N[C@H](C(=O)N[C@H](C(=O)O)c4cc(O)cc(O)c4-c4cc3ccc4O)[C@H](O)c3ccc(c(Cl)c3)Oc3cc2cc(c3O[C@@H]2O[C@H](CO)[C@@H](O)[C@H](O)[C@H]2O[C@H]2C[C@](C)(N)[C@H](O)[C@H](C)O2)Oc2ccc(cc2Cl)[C@H]1O [vancomycin, reference compound] |  |  |  |  |  |  |  | none of the antibiotics showed significant reduction | 
13 | CCCCCCCCCCCCCC(=O)N(CCCNC(=O)[C@@H](N)C(C)C)CCCNC(=O)[C@@H](N)C(C)C.O=C(O)C(F)(F)F.O=C(O)C(F)(F)F [Compound 49, N,N-bis-[{3-(^LVal)amido}propyl]tetradecanamide bis(trifluoroacetate)] | 4 µM | 3.6 µM | 7 µM | 3.4 µM | 4 µM | 7.3 µM | 134 µM |  | 
14 | CCCCCCCCCC(=O)N(CCCNC(=O)[C@@H](N)Cc1ccccc1)CCCNC(=O)[C@@H](N)Cc1ccccc1.O=C(O)C(F)(F)F.O=C(O)C(F)(F)F [Compound 1, N,N-bis-[{3-(^LPhe)amino}propyl]decanamide bis(trifluoroacetate)] | 19 µM | 36 µM | 24 µM | 25 µM | 17 µM | 70 µM |  |  | 232
15 | CCCCCCCCCCCC(=O)N(CCCNC(=O)[C@H](C)N)CCCNC(=O)[C@H](C)N.O=C(O)C(F)(F)F.O=C(O)C(F)(F)F [Compound 45, N,N-bis-[{3-(^LAla)amido}propyl]dodecanamide bis(trifluoroacetate)] | 95 µM | 73 µM | 282 µM | 133 µM | 82 µM | >365 µM | 562 µM |  | 

Source: patent US20170144969A1, “ANT[…], METHOD FOR PRODUCTION AND USES THEREOF” (priority 2014, published 2017)
